Test results as given in patent publication US9006228B2 (Merck Sharp & Dohme Corp., priority 2011, dated 2015).
pEC50: −log10 of the molar value.

These molecules were tested against T1, human GPR119 (Homo sapiens, UniProt Q8TDV5) (assay: Measurement of GPR119 signaling (cAMP assay; LANCE kit or HTRF) in HEK293 cells stably transfected with human GPR119). Details: agonist-stimulated cAMP in HEK293 cells expressing human GPR119.
T1 sequence (Q8TDV5 1-308 limits assumed): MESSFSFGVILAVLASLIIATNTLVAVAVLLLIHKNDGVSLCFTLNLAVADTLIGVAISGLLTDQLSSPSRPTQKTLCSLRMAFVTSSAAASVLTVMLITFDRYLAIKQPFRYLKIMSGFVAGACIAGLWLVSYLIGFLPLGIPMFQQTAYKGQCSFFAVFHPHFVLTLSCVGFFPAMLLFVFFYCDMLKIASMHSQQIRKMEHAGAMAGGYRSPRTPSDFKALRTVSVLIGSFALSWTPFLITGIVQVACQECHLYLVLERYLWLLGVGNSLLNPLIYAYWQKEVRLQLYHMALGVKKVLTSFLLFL
Format: cell-based
Summary of the method: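 LANCE method: cAMP detected with Eu-chelate/biotin-cAMP tracer, 3 h, read at 665 nm, converted via cAMP standards; basal from DMSO, maximum from internal agonist, 4-parameter fit.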

pEC50	Compound
9.13	CCc1cnc(N2CCC([C@H]3C[C@H]3COCc3ccc(S(C)(=O)=O)cc3)CC2)nc1 [Example 20, 5-ethyl-2-{4-[(1R,2R)-2-({[4-(methylsulfonyl)benzyl]oxy}methyl)cyclopropyl]piperidin-1-yl}pyrimidine]
7.92	CCc1cnc(N2CCC([C@H]3C[C@H]3COCc3ccc(-c4ncco4)cc3)CC2)nc1 [Example 54, 5-ethyl-2-{4-[(1R,2R)-2-({[4-(1,3-oxazol-2-yl)benzyl]oxy}methyl)cyclopropyl]piperidin-1-yl}pyrimidine]
8.96	CCc1cnc(N2CCC([C@H]3C[C@H]3COCc3ccc(-c4cccnn4)cc3)CC2)nc1 [Example 122]
8.15	O=S(=O)(c1ccc(COC[C@@H]2C[C@@H]2C2CCN(c3nc(C4CCC4)no3)CC2)cc1)C1CC1 [Example 31, 1-(3-cyclobutyl-1,2,4-oxadiazol-5-yl)-4-[(1R,2R)-2-({[4-(cyclopropylsulfonyl)benzyl]oxy}methyl)cyclopropyl]piperidine]
7.74	CC(C)c1noc(N2CCC([C@H]3C[C@H]3COCc3ccc(S(=O)(=O)C4CC4)cc3)CC2)n1 [Example 25]
8.77	O=S(=O)(CCO)c1ccc(COC[C@@H]2C[C@@H]2C2CCN(c3ncc(Br)cn3)CC2)c(F)c1 [Example 81]
8.07	CC(C)OC(=O)N1CCC([C@H]2C[C@H]2COCc2ccc(S(C)(=O)=O)c(F)c2)CC1 [Example 42, isopropyl 4-[(1R,2R)-2-({[3-fluoro-4-(methylsulfonyl)benzyl]oxy}methyl)cyclopropyl]piperidine-1-carboxylate]
9.00	CS(=O)(=O)c1ccc(COC[C@@H]2C[C@@H]2C2CCN(c3ncc(Br)cn3)CC2)nc1 [Example 4, 5-bromo-2-{4-[(1R,2R)-2-({[5-(methylsulfonyl)pyridin-2-yl]methoxy}methyl)cyclopropyl]piperidin-1-yl}pyrimidine]
9.14	COC(C)c1cnc(N2CCC([C@H]3C[C@H]3COCc3ccc(S(C)(=O)=O)c(F)c3)CC2)nc1 (single isomer, unassigned) [Example 130]
9.18	CC(C)c1noc(N2CCC([C@H]3C[C@H]3COCc3ccc(CC(=O)N(C)C)c(F)c3)CC2)n1 [Example 140, 2-(2-fluoro-4-((((1R,2R)-2-(1-(3-isopropyl-1,2,4-oxadiazol-5-yl)piperidin-4-yl)cyclopropyl)methoxy)methyl)phenyl)-N,N-dimethylacetamide]
8.41	CC1(OC(=O)N2CCC([C@H]3C[C@H]3COCc3ccc(S(C)(=O)=O)cc3)CC2)CC1 [Example 11, 1-methylcyclopropyl 4-[(1R,2R)-2-({[4-(methylsulfonyl)benzyl]oxy}methyl)cyclopropyl]piperidine-1-carboxylate]
10.00	CCS(=O)(=O)c1ccc(COC[C@@H]2C[C@@H]2C2CCN(C(=O)OC(C)(C)C)CC2)cc1F [Example 34, tert-butyl 4-[(1R,2R)-2-({[4-(ethylsulfonyl)-3-fluorobenzyl]oxy}methyl)cyclopropyl]piperidine-1-carboxylate]
8.80	Cc1cnc(N2CCC([C@H]3C[C@H]3COCc3ccc(S(C)(=O)=O)cc3)CC2)nc1 [Example 21, 5-methyl-2-{4-[(1R,2R)-2-({[4-(methylsulfonyl)benzyl]oxy}methyl)cyclopropyl]piperidin-1-yl}pyrimidine]
7.93	Cc1cnc(N2CCC([C@H]3C[C@H]3COCc3ccc(S(=O)(=O)CCO)cc3F)CC2)nc1 [Example 82]
9.10	CCS(=O)(=O)c1ccc(COC[C@@H]2C[C@@H]2C2CCN(c3nc(C4CCC4)no3)CC2)cc1 [Example 32, 1-(3-cyclobutyl-1,2,4-oxadiazol-5-yl)-4-[(1R,2R)-2-({[4-(ethylsulfonyl)benzyl]oxy}methyl)cyclopropyl]piperidine]
8.09	CC(C)COC(=O)N1CCC([C@H]2C[C@H]2COCc2ccc(S(C)(=O)=O)cc2)CC1 [Example 10, isobutyl 4-[(1R,2R)-2-({[4-(methylsulfonyl)benzyl]oxy}methyl)cyclopropyl]piperidine-1-carboxylate]
7.97	Cc1cnc(N2CCC([C@H]3C[C@H]3COCc3ccc(S(C)(=O)=O)cn3)CC2)nc1 [Example 2, 5-methyl-2-{4-[(1R,2R)-2-({[5-(methylsulfonyl)pyridin-2-yl]methoxy}methyl)cyclopropyl]piperidin-1-yl}pyrimidine]
9.22	CCc1cnc(N2CCC([C@H]3C[C@H]3COCc3ccc(S(=O)(=O)CC[C@H](C)O)cc3)CC2)nc1 [Example 64]

Compound	pEC50
CC1(OC(=O)N2CCC([C@H]3C[C@H]3COCc3ccc(-n4cnnn4)cc3F)CC2)CC1 [Example 136, 1-methylcyclopropyl 4-((1R,2R)-2-((2-fluoro-4-(1H-tetrazol-1-yl)benzyloxy)methyl)cyclopropyl)piperidine-1-carboxylate]	8.32
CC(=O)CSc1ccc(COC[C@@H]2C[C@@H]2C2CCN(C(=O)OC(C)(C)C)CC2)cc1 [Example 91]	7.83
